Data set [1] relates to HeLa. Put plainly: MTT-based proliferation assay, HeLa. Format: cell-based, human. Particulars: 48 h. The source says: (§1) 7. Cytotoxicity against Mammalian Cells
(§2) 7.1. Cell viability assays for Moxi, C-Moxi and Ru-s4
(§3) Dulbecco’s Modified Eagle’s Medium (DMEM: [+] 4.5 g/L D-Glucose, L-Glutamine; [-]
(§4) Pyruvate), containing 10% fetal calf serum, 1% penicillin and streptomycin, was used
(§5) as growth medium for HeLa cells. DMEM ([+] 1 g/L D-Glucose; [+] Pyruvate),
(§6) containing 10% fetal calf serum, 1% penicillin and streptomycin, was respectively used
(§7) for GM5657 cells. HeLa and GM5657 cells were detached from the wells with trypsin
(§8) and EDTA, harvested by centrifugation and resuspended in the respective cell culture
(§9) medium. The assays were carried out on 96 well plates with a density of 6000 cells
(§10) per well. After 24 h of incubation at 37°C and 10% CO2, the cells were treated with
(§11) Moxi, C-Moxi and Ru-s4 (constant DMSO concentrations of 0.5%) with a final volume
(§12) of 200 µL per well. For a negative control, one series of cells were only treated with
(§13) 0.5% DMSO, and for a positive control, one series was treated with cisplatin. After 48
(§14) h of incubation, 50 µL PBS containing MTT (2.5 mg/mL) was added. The cells were
(§15) incubated for an additional 2 h. Afterwards, the medium was removed, and 200 µL of
(§16) DMSO were added. The formazan crystal absorption was measured at 550 nm, using
(§17) a reference wavelength of 650 nm. Each assay was carried out in triplicates (three
(§18) independent experiments) for each cell line, Table S3.
(In general: Formazan colour is commonly taken as a measure of viable cells.)

The test system of data set [2] is GM5657. Put plainly: MTT-based proliferation assay, GM5657. The format is cell-based, human. Particulars: 48 h.
Excerpt: as §1, §2, §3, §4, §5, §6, §7, §8, §9, §10, §11, §12, §13, §14, §15, §16, §17, §18

Data set [3] concerns E. coli K12 (BW25113). Put plainly: prodrug uptake assay (incubation, HPLC of extracellular and wash samples). The format is cell-based, Escherichia coli.
Data set [4] is described as follows: solubility as observed in the assays. The format is physicochemical.
The subject of data set [5] is E. coli K12 (BW25113). Put plainly: antibacterial activity (dosage-response, 24 h) under iron-limited, micro-aerobic conditions.
Data set [6] deals with E. coli K12 (BW25113). Put plainly: catalyst-prodrug co-addition growth assay (24 h) with siderophore controls. Particulars: without C‐moxi, MHII + 200 μM bpy, 2 % O2, 24 h.
Data set [7] relates to E. coli K12 (BW25113). Put plainly: effect of catalyst-siderophore conjugates on bacterial growth (dose-response, 24 h). Particulars: at 10 μM, MHII + 200 μM bpy, 2 % O2, 24 h.
The subject of data set [8] is E. coli K12 (BW25113). Nature of the data set: prodrug incubation experiment: C-moxi preloading, washing, catalyst addition (18 h). Particulars: substrate at upper nontoxic concentration.
The mark [9] stands for this setting: Mean of three runs, tested range 0.05–100 μM.
[10] abbreviates: C-moxi 10 µM, relative to 'no cell' controls.
The mark [11] stands for this setting: MHII + 200 μM bpy, 2 % O2, 37 °C, 24 h.

What is called IC50 is the concentration needed to halve the response being measured. A higher IC50 goes with a need for much substance. Broadly, the solubility is the concentration that dissolves in the medium under given conditions.

Values after ≈ are worked out from the molar mass of the structure shown. Like-named read-outs stand apart in the source and are kept apart here.

For the molecule `N.N.[Cl][Pt][Cl]` [Cisplatin, cisplatin], the IC50 in data set [1] (setting [9]) came out at 17 µM; in data set [1] (Run 1), 12.6 µM; in data set [1] (Run 2) it was 20.6 µM; in data set [1] (Run 3) it was 17.8 µM; in data set [2] (setting [9]), 18.8 µM; in data set [2] (Run 1), 19.5 µM. Moreover, the IC50 came to 18 µM in data set [2] (Run 2) and 18.9 µM in data set [2] (Run 3).
For `C=CCOC(=O)c1cn(C2CC2)c2c(OC)c(N3C[C@@H]4CCCN[C@@H]4C3)c(F)cc2c1=O` [C‐moxi], the IC50 is more than 100 µM in data set [1] (setting [9]); more than 100 µM in data set [1] (Run 2); more than 100 µM in data set [1] (Run 3); more than 100 µM in data set [1] (Homo sapiens, Run 1); more than 100 µM in data set [2] (setting [9]); more than 100 µM in data set [2] (Run 2). Further, the IC50 in data set [2] (Run 3) is more than 100 µM; in data set [2] (Homo sapiens, Run 1) it was more than 100 µM. Further, in data set [3] (C-moxi 10 µM, 100 % minus extracellular and wash), the Remainder was determined as 16.4%. For the same molecule, the Uptake in data set [3] (C-moxi 10 µM, incubation OD600 0.1) is 3.31 nmol OD600-1. The Extracellular in data set [3] (setting [10]) amounted to 82.7%. For the same molecule, the Wash in data set [3] (setting [10]) was 0.9%. The “internalisation (bacterial uptake) of prodrug” value in data set [3] (C‐moxi added at 10 μM, 15 min at 37 °C, exponential growth, iron-limited, micro-aerobic) is 16%. Moreover, the solubility in data set [4] (bacterial growth assay medium, read-out: solubility limit) came out at 500 µM (≈ 221 µg/mL). Also, the “concentrations at which no antibacterial activity is seen” value in data set [5] (setting [11]) is less than 10 µM. Moreover, in data set [5] (bacterial assays, E. coli K12), the “times less toxic than the parent antibacterial Moxi” value is recorded as approximately 300.
With `CC(=O)N(O)CCCCCNC(=O)CCC(=O)N(O)CCCCCNC(=O)CCC(=O)N(O)CCCCCN` [DFO, desferrioxamine B], the “effect on growth relative to the no addition control, substance alone” value in data set [6] is “does not improve growth”.
As for `O=C(O)c1cccc(O)c1O` [DHB, 2,3‐dihydroxybenzoic acid], the “effect on growth relative to the no addition control, substance alone” value in data set [6] is “improve growth”.
On to `[Cl][Fe]([Cl])[Cl]` [FeCl3], for which the “change of overall growth compared to no addition” value in data set [7] is reported as “tenfold”.
Take `COc1c(N2C[C@@H]3CCCN[C@@H]3C2)c(F)cc2c(=O)c(C(=O)O)cn(C3CC3)c12` [Moxi, moxifloxacin]: the IC50 in data set [1] (setting [9]) is more than 100 µM; in data set [1] (Run 2), more than 100 µM; in data set [1] (Run 3) it was more than 100 µM; in data set [1] (Homo sapiens, Run 1), more than 100 µM; in data set [2] (setting [9]) it was more than 100 µM; in data set [2] (Run 2) it was more than 100 µM. The IC50 is more than 100 µM in data set [2] (Run 3) and more than 100 µM in data set [2] (Homo sapiens, Run 1). Also, the “difference between C‐moxi and DMSO incubations (in words)” value in data set [8] was “no significant difference between incubations”. The “concentrations at which no antibacterial activity is observed” value in data set [5] (setting [11]) is less than 10 nM.
For the molecule `C=CCOC(=O)N1CCC[C@H]2CN(c3c(F)cc4c(=O)c(C(=O)O)cn(C5CC5)c4c3OC)C[C@H]21` [N‐moxi], the solubility entry in data set [4] (10 % DMSO in aqueous MOPS buffer, HPLC kinetics) is “poor solubility”. The “concentrations at which no antibacterial activity is seen” value in data set [5] (setting [11]) was less than 10 µM.
On to `O=C(NCCCC[C@H](NC(=O)c1cccc(O)c1O)C(=O)O)c1cccc(O)c1O` [azotochelin], for which, in data set [6], the “effect on growth relative to the no addition control, substance alone” value is listed as “improve growth”.
`O=C(O)CC(O)(CC(=O)O)C(=O)O` [citrate]: the “effect on growth relative to the no addition control, substance alone” value in data set [6] is “improve growth”.

Source of the values: publication PMC10108276, “Siderophore‐Linked Ruthenium Catalysts for Targeted Allyl Ester Prodrug Activation within Bacterial Cells” (Chemistry (Weinheim an Der Bergstrasse, Germany), 2022).
